24 compounds from US7323469B2, “7H-pyrrolo[2,3-d]pyrimidine derivatives” (Novartis AG, priority 2001, dated 2008) can be followed below.

A word on the melting point: it is the temperature, or range, at which the solid turns liquid.

`Cc1ccc(Nc2ncnc3[nH]c(-c4ccc(CN5CCN(C)CC5)cc4)cc23)cc1O` [Example 72, 2-Methyl-5-{6-[4-(4-methyl-piperazin-1-ylmethyl)-phenyl]-7H-pyrrolo[2,3-d]pyrimidin-4-ylamino}-phenol]: the melting point was greater than 300 °C. The figure for `C[C@@H](Nc1ncnc2[nH]c(-c3ccc(CNC(=O)CCCN(C)C)cc3)cc12)c1ccccc1` [Example 56, 4-Dimethylamino-N-{4-[4-((R)-1-phenyl-ethyl-amino)-7H-pyrrolo[2,3-d]pyrimidin-6-yl]-benzyl}-butyramide] is 195 to 203 °C; for `CCNCc1ccc(-c2cc3c(N[C@H](C)c4ccccc4)ncnc3[nH]2)cc1` [Example 16f, [6-(4-Ethylaminomethyl-phenyl)-7H-pyrrolo[2,3-d]pyrimidin-4-yl]-((R)-1-phenyl-ethyl)-amine] it is 236 to 238 °C. The compound `CC(C)NCc1ccc(-c2cc3c(N[C@H](C)c4ccccc4)ncnc3[nH]2)cc1` [Example 16e, {6-[4-(isopropylamino-methyl)-phenyl]-7H-pyrrolo[2,3-d]pyrimidin-4-yl}-((R)-1-phenyl-ethyl)-amine] returned a melting point of 266 to 268 °C. The same measure for `CC(C)NCc1ccc(-c2cc3c(Nc4ccc(F)c(Cl)c4)ncnc3[nH]2)cc1` [Example 8d, (3-Chloro-4-fluoro-phenyl)-{6-[4-(iso-propylamino-methyl)-phenyl]-7H-pyrrolo[2,3-d]pyrimidin-4-yl}-amine]: 282 to 284 °C; for `CCN1CCN(Cc2ccc(-c3cc4c(NCc5cccc(OC)c5)ncnc4[nH]3)cc2)CC1` [Example 107c, {6-[4-(4-Ethyl-piperazin-1-ylmethyl)-phenyl]-7H-pyrrolo[2,3-d]pyrimidin-4-yl}-(3-methoxy-benzyl)-amine]: 231 to 233 °C; for `COc1ccc(Nc2ncnc3[nH]c(-c4ccc(CN5CCOCC5)cc4)cc23)cn1` [Example 111, (6-Methoxy-pyridin-3-yl)-[6-(4-morpholin-4-ylmethyl-phenyl)-7H-pyrrolo[2,3-d]pyrimidin-4-yl]-amine]: 263 to 264 °C.

With `COc1cc(CNc2ncnc3[nH]c(-c4ccc(CN5CCN(C)CC5)cc4)cc23)ccn1` [Example 125, (2-Methoxy-pyridin-4-ylmethyl)-{6-[4-(4-methyl-piperazin-1-ylmethyl)-phenyl]-7H-pyrrolo[2,3-d]pyrimidin-4-yl}-amine], the melting point lay within 211 to 212 °C. The same measure for `Clc1ccccc1CNc1ncnc2[nH]c(-c3ccc(CN4CCOCC4)cc3)cc12` [Example 93, (2-Chloro-benzyl)-[6-(4-morpholin-4-ylmethyl-phenyl)-7H-pyrrolo[2,3-d]pyrimidin-4-yl]-amine]: 276 to 279 °C; for `CCN(CC)Cc1ccc(-c2cc3c(NCc4cccc(Cl)c4)ncnc3[nH]2)cc1` [Example 87, (3-Chloro-benzyl)-[6-(4-diethylaminomethyl-phenyl)-7H-pyrrolo[2,3-d]pyrimidin-4-yl]-amine]: 231 to 233 °C; for `C[C@@H](Nc1ncnc2[nH]c(-c3ccc(CN(C)C)cc3)cc12)c1ccc(Cl)cc1` [Example 76, [(R)-1-(4-Chloro-phenyl)-ethyl]-[6-(4-dimethylaminomethyl-phenyl)-7H-pyrrolo[2,3-d]pyrimidin-4-yl]-amine]: 273 to 274 °C. The same measure for `CN1CCN(CC(=O)NCc2cccc(-c3cc4c(Nc5ccc(F)c(Cl)c5)ncnc4[nH]3)c2)CC1` [Example 65, N-{3-[4-(3-Chloro-4-fluoro-phenylamino)-7H-pyrrolo[2,3-d]pyrimidin-6-yl]-benzyl}-2-(4-methyl-piperazin-1-yl)-acetamide]: 214 °C; for `O=C(CN1CCCCC1)NCc1cccc(-c2cc3c(Nc4ccc(F)c(Cl)c4)ncnc3[nH]2)c1` [Example 66, N-{3-[4-(3-Chloro-4-fluoro-phenylamino)-7H-pyrrolo[2,3-d]pyrimidin-6-yl]-benzyl}-2-piperidin-1-yl-acetamide]: 252 to 254 °C; for `CCN1CCN(Cc2ccc(-c3cc4c(NCc5cc(Cl)ccc5Cl)ncnc4[nH]3)cc2)CC1` [Example 97, (2,5-Dichloro-benzyl)-{6-[4-(4-ethyl-piperazin-1-ylmethyl)-phenyl]-7H-pyrrolo[2,3-d]pyrimidin-4-yl}-amine]: 249 to 251 °C. The same measure for `COc1cccc(CNc2ncnc3[nH]c(-c4ccc(CN5CCCCC5)cc4)cc23)c1` [Example 107, (3-Methoxy-benzyl)-[6-(4-piperidin-1-ylmethyl-phenyl)-7H-pyrrolo[2,3-d]pyrimidin-4-yl]-amine]: 227 to 229 °C; for `Cc1ccc(Nc2ncnc3[nH]c(-c4cccc(CN5CCN(C)CC5)c4)cc23)cc1O` [Example 67, 2-Methyl-5-{6-[3-(4-methyl-piperazin-1-ylmethyl)-phenyl]-7H-pyrrolo[2,3-d]pyrimidin-4-ylamino}-phenol]: 256 to 258 °C; for `Clc1cccc(CNc2ncnc3[nH]c(-c4ccc(CN5CCCCC5)cc4)cc23)c1` [Example 85, (3-Chloro-benzyl)-[6-(4-piperidin-1-ylmethyl-phenyl)-7H-pyrrolo[2,3-d]pyrimidin-4-yl]-amine]: 234 to 235 °C. Compound `CN(C)CC(=O)NCc1ccc(-c2cc3c(Nc4ccc(OCc5ccccc5)cc4)ncnc3[nH]2)cc1` [Example 51, N-{4-[4-(4-Benzyloxy-phenylamino)-7H-pyrrolo[2,3-d]pyrimidin-6-yl]-benzyl}-2-dimethylamino-acetamide] displayed a melting point of 233 to 235 °C. `CCN(CC)Cc1ccc(-c2cc3c(NCc4ccccc4Cl)ncnc3[nH]2)cc1` [Example 96, (2-Chloro-benzyl)-[6-(4-diethylaminomethyl-phenyl)-7H-pyrrolo[2,3-d]pyrimidin-4-yl]-amine] showed a melting point of 257 to 258 °C. The same measure for `CCN1CCN(Cc2ccc(-c3cc4c(NCc5cccc(Cl)c5)ncnc4[nH]3)cc2)CC1` [Example 83, (3-Chloro-benzyl)-{6-[4-(4-ethyl-piperazin-1-ylmethyl)-phenyl]-7H-pyrrolo[2,3-d]pyrimidin-4-yl}-amine]: 241 to 243 °C. The same measure for `Cl.Clc1cccc(Nc2ncnc3[nH]c(-c4ccc(CN5CCOCC5)cc4)cc23)c1`: 278 to 280 °C; for `Fc1ccc(Nc2ncnc3[nH]c(-c4cccc(CN5CCOCC5)c4)cc23)cc1Cl` [Example 39, (3-Chloro-4-fluoro-phenyl)-[6-(3-morpholin-4-ylmethyl-phenyl)-7H-pyrrolo[2,3-d]pyrimidin-4-yl]-amine]: 290 to 292 °C. `CCN(CC)CCC(=O)NCc1ccc(-c2cc3c(N[C@H](C)c4ccccc4)ncnc3[nH]2)cc1` [Example 55, 3-Diethylamino-N-{4-[4-((R)-1-phenyl-ethyl-amino)-7H-pyrrolo[2,3-d]pyrimidin-6-yl]-benzyl}-propionamide] displayed a melting point of 175 to 177 °C. On to `Clc1cccc(CNc2ncnc3[nH]c(-c4ccc(CN5CCCC5)cc4)cc23)c1` [Example 88, (3-Chloro-benzyl)-[6-(4-pyrrolidin-1-ylmethyl-phenyl)-7H-pyrrolo[2,3-d]pyrimidin-4-yl]-amine], for which the melting point was 222 to 225 °C.
